Laboratory results: US12163111B2 (priority 2017, dated 2024)
Like-named read-outs stand apart in the source and are kept apart here.

Legend:
[1] = Source text: Various materials used to manufacture a cell culture device have been tested. One material used for the cell culture device, PEEK, is a strong plastic polymer that is resistant to wear. PEEK is advantageous in drug testing because it is non-absorbent as opposed to, for example, the commonly used poly(dimethylsiloxane) (PDMS), which is known to retain small hydrophobic molecules, such as nicotine. PEEK has been found not to retain nicotine or NNK, another small hydrophobic molecule. Therefore, the cell culture device is suitable for the testing of drug effects on the tissues housed within the cell culture device without risk of the drug concentration (or concentration of its metabolites) being altered by the material.
PEEK has the advantage of not being absorbent towards small molecules. […] This is important since materials used for commercially available plates such as PDMS are known to trap small hydrophobic molecules.

[2] = PDMS plate, 8 hours incubation at 4° C.

Structure (SMILES)	absorbance of PEEK towards the molecule (trapping by the material) [1]	amount of nicotine remaining in the plate [2]	amount of nicotine remaining in the plate ([1]; 8 h)
CN(CCCC(=O)c1cccnc1)N=O [NNK, 4-(methylnitrosamino)-1-(3-pyridyl)-1-butanone]	not trapped by the material	–	–
CN1CCCC1c1cccnc1 (stereo not shown) [nicotine]	not trapped by the material	about 35%	about 100%
